Tests used:
[1] = Stability to Phase I metabolism in rat S9 liver fraction; type: in vitro ADME; conditions: after 90 min, 37° C.
Protocol: Test compounds were incubated in rat and human liver S9 fraction at 37° C. up to 90 minutes in order to evaluate their stability to Phase I metabolism by hepatic enzymes. […] The reaction was stopped placing samples on ice bath and adding acidified acetonitrile. After centrifugation (10 minutes at 14000 rpm) an aliquot of the supernatant was diluted water, filtered with 0.45 μm regenerated cellulose syringe filters and injected in HPLC-UV or in LC-MS/MS. The percentages of the amount remaining at the various incubation times with respect to the initial amount were calculated. The intrinsic clearance was also calculated.

Stability in rat plasma = type: in vitro ADME; conditions: after 4 hours, 37° C.
Protocol: In order to evaluate the stability to circulating enzymes, test compounds were incubated in human and rat plasma at 37° C. in a thermostated oscillating bath. Each test compound was incubated at μM (50 μM when the samples were analysed by UV/HPLC, 1 or 2 μM when the samples were analysed by LC-MS/MS) concentration for 0, 15, 30 min and 1, 2 and 4 hours. The reaction was stopped placing tubes on ice bath and adding acidified acetonitrile. After centrifugation for 10 minutes at 14000 rpm, an aliquot of the supernatant was diluted with water, filtered with 0.45 μm syringe filters and injected in HPLC-UV or in LC-MS/MS. The percentages of amount remaining at the various times of incubation with respect to initial amount were calculated. The half-life in plasma was also calculated.

recombinant human HDAC6 = target: T1, recombinant human HDAC6 (Homo sapiens, UniProt Q9UBN7); assay: Enzymatic screening on recombinant human HDAC6; type: biochemical; conditions: Table 2; read-out: HDAC6 IC50
T1 sequence (Q9UBN7 1-1215): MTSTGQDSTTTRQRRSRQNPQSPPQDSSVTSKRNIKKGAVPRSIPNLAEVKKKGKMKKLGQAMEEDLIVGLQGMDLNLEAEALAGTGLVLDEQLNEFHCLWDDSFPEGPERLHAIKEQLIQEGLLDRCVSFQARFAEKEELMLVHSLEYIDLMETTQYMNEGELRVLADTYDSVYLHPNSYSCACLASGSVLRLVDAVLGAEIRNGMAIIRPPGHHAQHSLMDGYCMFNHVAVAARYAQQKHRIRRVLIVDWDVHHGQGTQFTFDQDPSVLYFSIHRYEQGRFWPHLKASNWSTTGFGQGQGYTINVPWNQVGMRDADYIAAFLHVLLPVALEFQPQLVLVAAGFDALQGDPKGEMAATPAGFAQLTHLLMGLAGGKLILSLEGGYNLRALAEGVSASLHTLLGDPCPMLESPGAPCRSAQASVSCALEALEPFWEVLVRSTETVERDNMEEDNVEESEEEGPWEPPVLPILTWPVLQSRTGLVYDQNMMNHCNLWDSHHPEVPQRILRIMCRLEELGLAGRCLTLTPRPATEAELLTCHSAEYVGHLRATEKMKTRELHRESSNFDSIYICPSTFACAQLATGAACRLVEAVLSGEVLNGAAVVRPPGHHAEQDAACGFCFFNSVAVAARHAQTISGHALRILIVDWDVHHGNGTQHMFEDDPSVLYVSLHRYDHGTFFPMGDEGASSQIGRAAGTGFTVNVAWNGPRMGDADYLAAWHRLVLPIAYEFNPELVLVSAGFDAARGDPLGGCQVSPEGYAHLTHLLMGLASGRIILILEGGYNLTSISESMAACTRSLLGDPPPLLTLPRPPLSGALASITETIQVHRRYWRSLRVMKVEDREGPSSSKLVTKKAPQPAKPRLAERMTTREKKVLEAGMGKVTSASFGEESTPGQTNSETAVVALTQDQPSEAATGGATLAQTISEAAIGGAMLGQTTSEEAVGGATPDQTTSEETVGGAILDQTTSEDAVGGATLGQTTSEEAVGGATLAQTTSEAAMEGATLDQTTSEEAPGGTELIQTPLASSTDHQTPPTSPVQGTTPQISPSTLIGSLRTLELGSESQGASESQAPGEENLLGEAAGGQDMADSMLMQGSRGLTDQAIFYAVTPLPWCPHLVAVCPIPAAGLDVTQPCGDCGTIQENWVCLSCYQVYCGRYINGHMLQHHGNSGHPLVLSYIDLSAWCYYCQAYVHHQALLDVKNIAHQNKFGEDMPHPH
Protocol: Enzymatic activity on recombinant human HDAC6 and HDAC3 was evaluated (Table 2) for each synthesized compound.
After a period of incubation at 30° C. (incubation times vary for different isoforms and are shown in table 1) 25 μL of solution containing the substrate were added. As substrate, FLUOR DE LYS® deacetylase substrate (Enzo Life Sciences, cat #BML-K1104, FdL), FLUOR DE LYS®-Green substrate (Enzo Life Sciences, cat #BML-K1572 FdL_G) and trifluoroacetyl-L-lysine (Tfal)-2× concentrated solution in 25 mM Tris-HCl, pH 8, 130 mM NaCl 0.05% Tween-20 10% glycerol) were used. Following a reaction period at 30° C.

Structure (SMILES)	residual percentage in rat S9 fraction [1]	residual percentage in rat plasma (Stability in rat plasma)	IC50 (recombinant human HDAC6)
CCn1c(Sc2ccc(C(=O)NO)cc2)nnc1-c1ccc(F)cc1 [comp. 30, 4-[[4-ethyl-5-(4-fluorophenyl)-1,2,4-triazol-3-yl]sulfanyl]benzenecarbohydroxamic acid]	63%	49%	25 nM
O=C(NO)c1ccc(Cn2nnc(-c3ccc(Cl)cc3)n2)cc1 [comp. 31, 4-[[5-(4-chlorophenyl)tetrazol-2-yl]methyl]benzenecarbohydroxamic acid]	0%	76%	14 nM
O=C(NO)c1ccc(Cn2nnc(Cc3ccccc3)n2)cc1 [comp. 36, 4-[(5-benzyltetrazol-2-yl)methyl]benzenecarbohydroxamic acid]	38%	60%	52 nM
O=C(NO)c1ccc(Cn2nnnc2Cc2ccccc2)cc1 [comp. 37, 4-[(5-benzyltetrazol-1-yl)methyl]benzenecarbohydroxamic acid]	82%	6%	212 nM
COc1ccc(Cc2nc(Cc3ccc(C(=O)NO)cc3)n(-c3ccc(C(F)(F)F)cc3)n2)cc1OC [comp. 44, 4-[[5-[(3,4-dimethoxyphenyl)methyl]-2-[4-(trifluoromethyl)phenyl]-1,2,4-triazol-3-yl]methyl]benzenecarbohydroxamic acid]	87%	32%	415 nM
COc1ccc(Cc2nnc(Cc3ccc(C(=O)NO)cc3)o2)cc1OC [comp. 45, 4-[[5-[(3,4-dimethoxyphenyl)methyl]-1,3,4-oxadiazol-2-yl]methyl]benzenecarbohydroxamic acid]	69%	81%	68 nM
Cc1nc(Sc2ccc(C(=O)NO)cc2)nn1-c1ccc(Cl)cc1Cl [comp. 62, 4-[[1-(2,4-dichlorophenyl)-5-methyl-1,2,4-triazol-3-yl]sulfanyl]benzenecarbohydroxamic acid]	55%	83%	127 nM
Cc1ccc(-c2cc(-c3nnc(Sc4ccc(C(=O)NO)cc4)n3C)c3ccccc3n2)cc1 [comp. 67, 4-[[4-methyl-5-[2-(p-tolyl)-4-quinolyl]-1,2,4-triazol-3-yl]sulfanyl]benzenecarbohydroxamic acid]	44%	101%	70 nM
COc1ccc(-c2nnnn2Cc2ccc(C(=O)NO)cc2)cc1OCc1ccccc1 [comp. 71, 4-[[5-(3-benzyloxy-4-methoxy-phenyl)tetrazol-1-yl]methyl]benzenecarbohydroxamic acid]	58%	4%	52 nM
Cn1c(Sc2ccc(C(=O)NO)cc2)nnc1C1COc2ccccc2O1 (stereo not drawn) [comp. 83, 4-[[5-(2,3-dihydro-1,4-benzodioxin-3-yl)-4-methyl-1,2,4-triazol-3-yl]sulfanyl]benzenecarbohydroxamic acid]	92%	76%	22 nM
O=C(NO)c1ccc(Cn2nnc(-c3ccccn3)n2)cc1 [comp. 89, 4-[[5-(2-pyridyl)tetrazol-2-yl]methyl]benzenecarbohydroxamic acid]	97%	70%	9 nM
O=C(NO)c1cc(F)c(Cn2nnc(-c3ccc4ccccc4n3)n2)c(F)c1 [comp. 95, 3,5-difluoro-4-[[5-(2-quinolyl)tetrazol-2-yl]methyl]benzenecarbohydroxamic acid]	41%	75%	10 nM
Cn1c(Sc2c(F)cc(C(=O)NO)cc2F)nnc1C1(c2ccccc2)CCC1 [comp. 101, 3,5-difluoro-4-[[4-methyl-5-(1-phenylcyclobutyl)-1,2,4-triazol-3-yl]sulfanyl]benzenecarbohydroxamic acid]	9%	73%	18 nM
Cn1c(Sc2c(F)cc(C(=O)NO)cc2F)nnc1C1(c2cccc(F)c2)CCCC1 [comp. 102, 3,5-difluoro-4-[[5-[1-(3-fluorophenyl)cyclopentyl]-4-methyl-1,2,4-triazol-3-yl]sulfanyl]benzenecarbohydroxamic acid]	16%	82%	33 nM

Continued by falling IC50 (recombinant human HDAC6), values first:

residual percentage in rat S9 fraction [1]	residual percentage in rat plasma (Stability in rat plasma)	IC50 (recombinant human HDAC6)	Structure (SMILES)
18%	79%	9 nM	COc1ccc(-c2nnn(Cc3ccc(C(=O)NO)cc3)n2)cc1OCc1ccccc1 [comp. 70, 4-[[5-(3-benzyloxy-4-methoxy-phenyl)tetrazol-2-yl]methyl]benzenecarbohydroxamic acid]
71%	94%	8 nM	COc1ccc(-c2nnc(Cc3ccc(C(=O)NO)cc3)o2)cc1OC [comp. 57, 4-[[5-(3,4-dimethoxyphenyl)-1,3,4-oxadiazol-2-yl]methyl]benzenecarbohydroxamic acid]
57%	82%	7 nM	COc1ccc(-c2nc(Cc3ccc(C(=O)NO)cc3)no2)cc1OC [comp. 49, 4-[[5-(3,4-dimethoxyphenyl)-1,2,4-oxadiazol-3-yl]methyl]benzenecarbohydroxamic acid]
41%	99%	7 nM	O=C(NO)c1cc(F)c(Cn2nnnc2-c2ccc3ccccc3n2)c(F)c1 [comp. 96, 3,5-difluoro-4-[[5-(2-quinolyl)tetrazol-1-yl]methyl]benzenecarbohydroxamic acid]
108%	91%	7 nM	Cn1c(Sc2c(F)cc(C(=O)NO)cc2F)nnc1-c1sc2ncccc2c1N [comp. 99, 4-[[5-(3-aminothieno[2,3-b]pyridin-2-yl)-4-methyl-1,2,4-triazol-3-yl]sulfanyl]-3,5-difluoro-benzenecarbohydroxamic acid]
34%	77%	4 nM	O=C(NO)c1ccc(Cc2nnc(-c3ccccc3)o2)cc1 [comp. 68, 4-[(5-phenyl-1,3,4-oxadiazol-2-yl)methyl]benzenecarbohydroxamic acid]
0%	63%	3 nM	Cc1ccsc1-c1nnn(Cc2ccc(C(=O)NO)cc2)n1 [comp. 39, 4-[[5-(3-methyl-2-thienyl)tetrazol-2-yl]methyl]benzenecarbohydroxamic acid]
